Measurements taken from patent publication US10294202B2, “Pyrrolidinones as herbicides” (FMC Corporation, priority 2013, dated 2019).

Experiments:
[1] = system: sedge, umbrella; assay: Test B flooded paddy test; assay type: in vivo, Cyperus difformis; details: Flood, scale of 0 to 100 where 0 is no effect and 100 is complete control
Method in brief: (§1)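 Paddy-water application at a 3 cm flood, young plants having two leaves. Water level maintained; greenhouse, 13–15 days; visual 0–100 control rating.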

[2] = system: barnyardgrass; assay: Test A pre-/postemergence herbicide test; assay type: in vivo, Echinochloa crus-galli
Method in brief: (§2)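 Seeds sown in loam soil/sand blend received a preemergence directed soil spray of test chemical in non-phytotoxic solvent with surfactant; postemergence plants (2–10 cm, one- to two-leaf stage) were sprayed with the same formulation. After about 10 days in greenhouse, injury was rated visually versus untreated controls, 0 (no effect) to 100 (complete control).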

[3] = system: barnyardgrass; assay: Test B flooded paddy test; assay type: in vivo, Echinochloa crus-galli; details: Flood, scale of 0 to 100 where 0 is no effect and 100 is complete control
Method in brief: as §1

[4] = system: corn; assay: Test A pre-/postemergence herbicide test; assay type: in vivo, Zea mays; details: Postemergence
Method in brief: as §2

[5] = system: galium; assay: Test A postemergence herbicide test; assay type: in vivo, Galium aparine
Method in brief: (§3)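 Plants at the one- to two-leaf stage, 2–10 cm tall, grown in loam/sand pots, received postemergence sprays of the test chemicals. After about 10 days in the greenhouse, injury was scored visually against untreated controls on a 0–100 scale (0 none, 100 complete control).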

[6] = system: ducksalad; assay: Test B flooded paddy test; assay type: in vivo, Heteranthera limosa; details: Flood, scale of 0 to 100 where 0 is no effect and 100 is complete control
Method in brief: as §1

[7] = system: giant foxtail; assay: Test A pre-/postemergence herbicide test; assay type: in vivo, Setaria faberii
Method in brief: as §2

[8] = system: pigweed; assay: Test A pre-/postemergence herbicide test; assay type: in vivo, Amaranthus retroflexus
Method in brief: as §2

[9] = system: ragweed; assay: Test A pre-/postemergence herbicide test; assay type: in vivo, Ambrosia elatior
Method in brief: as §2

[10] = system: ryegrass, Italian; assay: Test A pre-/postemergence herbicide test; assay type: in vivo, Lolium multiflorum
Method in brief: as §2

[11] = system: kochia; assay: Test A pre-/postemergence herbicide test; assay type: in vivo, Kochia scoparia
Method in brief: as §2

[12] = system: rice; assay: Test B flooded paddy test; assay type: in vivo, Oryza sativa; details: Flood, scale of 0 to 100 where 0 is no effect and 100 is complete control
Method in brief: as §1

[13] = system: blackgrass; assay: Test A postemergence herbicide test; assay type: in vivo, Alopecurus myosuroides
Method in brief: as §3

[14] = system: wheat; assay: Test A pre-/postemergence herbicide test; assay type: in vivo, Triticum aestivum; details: Postemergence
Method in brief: as §2

[15] = 125 g ai/ha, visual rating, 0 to 100 scale, 0 no effect, 100 complete control, approximately 10 days, preemergence
[16] = Postemergence, 125 g ai/ha, 0 to 100 scale, 0 is no effect, 100 is complete control
[17] = preemergence, 500 g ai/ha, 0 to 100 scale, 0 is no effect and 100 is complete control
[18] = 125 g ai/ha, 0 to 100 scale, 0 is no effect, 100 is complete control
[19] = Postemergence, 500 g ai/ha, 0 to 100 scale (0 no effect, 100 complete control)
[20] = Preemergence, 125 g ai/ha, 0 to 100 scale where 0 is no effect and 100 is complete control
[21] = 500 g ai/ha, 0 to 100 scale (0 no effect, 100 complete control)
[22] = Postemergence, 125 g ai/ha, visual rating on 0 to 100 scale (0 no effect, 100 complete control), approx. 10 days

## O=C1NCC(c2cccc(S(F)(F)(F)(F)F)c2)C1C(=O)Nc1ccccc1F (racemic) [Compound 213]
[1]; 1000 g ai/ha
  Plant response rating, Sedge, Umbrella: 0
[2]; [15]
  Plant response rating, Barnyardgrass: 50
[2]; [16]
  Plant response rating, Barnyardgrass: 60
[2]; Postemergence, 500 g ai/ha
  Barnyardgrass plant response rating (0 to 100 scale, 0 is no effect, 100 is complete control): 70
[2]; [17]
  Plant response rating, Barnyardgrass: 80
[3]; 1000 g ai/ha
  Plant response rating, Barnyardgrass: 60
[4]; [18]
  Plant response rating, Corn: 0
[4]; 500 g ai/ha
  Corn plant response rating (0 to 100 scale, 0 is no effect, 100 is complete control): 50
[5]; [18]
  Plant response rating, Galium: 0
[5]; 500 g ai/ha
  Galium plant response rating (0 to 100 scale, 0 is no effect, 100 is complete control): 0
[6]; 1000 g ai/ha
  Plant response rating, Ducksalad: 85
[7]; [15]
  Plant response rating, Foxtail, Giant: 80
[7]; [16]
  Plant response rating, Foxtail, Giant: 80
[7]; Postemergence, 500 g ai/ha
  Foxtail, Giant plant response rating (0 to 100 scale, 0 is no effect, 100 is complete control): 90
[7]; [17]
  Plant response rating, Foxtail, Giant: 90
[8]; [15]
  Plant response rating, Pigweed: 0
[8]; [16]
  Plant response rating, Pigweed: 0
[8]; Postemergence, 500 g ai/ha
  Pigweed plant response rating (0 to 100 scale, 0 is no effect, 100 is complete control): 0
[8]; [17]
  Plant response rating, Pigweed: 0
[9]; [15]
  Plant response rating, Ragweed: 0
[9]; [16]
  Plant response rating, Ragweed: 0
[9]; Postemergence, 500 g ai/ha
  Ragweed plant response rating (0 to 100 scale, 0 is no effect, 100 is complete control): 30
[9]; [17]
  Plant response rating, Ragweed: 0
[10]; [15]
  Plant response rating, Ryegrass, Italian: 0
[10]; [16]
  Plant response rating, Ryegrass, Italian: 40
[10]; Postemergence, 500 g ai/ha
  Ryegrass, Italian plant response rating (0 to 100 scale, 0 is no effect, 100 is complete control): 50
[10]; [17]
  Plant response rating, Ryegrass, Italian: 40
[11]; [15]
  Plant response rating, Kochia: 0
[11]; [16]
  Plant response rating, Kochia: 0
[11]; Postemergence, 500 g ai/ha
  Kochia plant response rating (0 to 100 scale, 0 is no effect, 100 is complete control): 0
[11]; [17]
  Plant response rating, Kochia: 0
[12]; 1000 g ai/ha
  Plant response rating, Rice: 0
[13]; [18]
  Plant response rating, Blackgrass: 50
[13]; 500 g ai/ha
  Blackgrass plant response rating (0 to 100 scale, 0 is no effect, 100 is complete control): 60
[14]; [18]
  Plant response rating, Wheat: 0
[14]; 500 g ai/ha
  Wheat plant response rating (0 to 100 scale, 0 is no effect, 100 is complete control): 50

## O=C1NCC(c2ccc(Cl)c(Cl)c2)C1C(=O)Nc1ccc(F)cc1F (racemic) [Compound 272]
[1]; 500 g ai/ha
  Plant response rating, Sedge, Umbrella: 0
[2]; [16]
  Plant response rating, Barnyardgrass: 50
[2]; [19]
  Plant response rating, Barnyardgrass: 80
[2]; [20]
  Plant response rating, Barnyardgrass: 70
[2]; [17]
  Plant response rating, Barnyardgrass: 90
[3]; 500 g ai/ha
  Plant response rating, Barnyardgrass: 20
[4]; [18]
  Plant response rating, Corn: 0
[4]; [21]
  Plant response rating, Corn: 10
[5]; [18]
  Plant response rating, Galium: 30
[5]; [21]
  Plant response rating, Galium: 50
[6]; 500 g ai/ha
  Plant response rating, Ducksalad: 100
[7]; [16]
  Plant response rating, Foxtail, Giant: 60
[7]; [19]
  Plant response rating, Foxtail, Giant: 80
[7]; [20]
  Plant response rating, Foxtail, Giant: 90
[7]; [17]
  Plant response rating, Foxtail, Giant: 90
[8]; [22]
  Plant response rating, Pigweed: 0
[8]; [19]
  Plant response rating, Pigweed: 20
[8]; [20]
  Plant response rating, Pigweed: 0
[8]; [17]
  Plant response rating, Pigweed: 30
[9]; [22]
  Plant response rating, Ragweed: 40
[9]; [19]
  Plant response rating, Ragweed: 0
[9]; [20]
  Plant response rating, Ragweed: 0
[9]; [17]
  Plant response rating, Ragweed: 0
[10]; [22]
  Plant response rating, Ryegrass, Italian: 0
[10]; [19]
  Plant response rating, Ryegrass, Italian: 0
[10]; [20]
  Plant response rating, Ryegrass, Italian: 0
[10]; [17]
  Plant response rating, Ryegrass, Italian: 0
[11]; [16]
  Plant response rating, Kochia: 20
[11]; [19]
  Plant response rating, Kochia: 60
[11]; [20]
  Plant response rating, Kochia: 0
[11]; [17]
  Plant response rating, Kochia: 20
[12]; 500 g ai/ha
  Plant response rating, Rice: 0
[13]; [18]
  Plant response rating, Blackgrass: 0
[13]; [21]
  Plant response rating, Blackgrass: 30
[14]; 125 g ai/ha, visual rating on 0 to 100 scale (0 no effect, 100 complete control), approx. 10 days
  Plant response rating, Wheat: 0
[14]; [21]
  Plant response rating, Wheat: 0
